For data set [1] the following is noted: cited from earlier work.
The target of another data set is T1, CYP2A6 (Homo sapiens, UniProt P11509).
T1 construct: purchased BD Bioscience (Woburn, MA); host or cells: baculovirus-infected insect cells (microsomes, supersomes)
T1 sequence (P11509 1-494): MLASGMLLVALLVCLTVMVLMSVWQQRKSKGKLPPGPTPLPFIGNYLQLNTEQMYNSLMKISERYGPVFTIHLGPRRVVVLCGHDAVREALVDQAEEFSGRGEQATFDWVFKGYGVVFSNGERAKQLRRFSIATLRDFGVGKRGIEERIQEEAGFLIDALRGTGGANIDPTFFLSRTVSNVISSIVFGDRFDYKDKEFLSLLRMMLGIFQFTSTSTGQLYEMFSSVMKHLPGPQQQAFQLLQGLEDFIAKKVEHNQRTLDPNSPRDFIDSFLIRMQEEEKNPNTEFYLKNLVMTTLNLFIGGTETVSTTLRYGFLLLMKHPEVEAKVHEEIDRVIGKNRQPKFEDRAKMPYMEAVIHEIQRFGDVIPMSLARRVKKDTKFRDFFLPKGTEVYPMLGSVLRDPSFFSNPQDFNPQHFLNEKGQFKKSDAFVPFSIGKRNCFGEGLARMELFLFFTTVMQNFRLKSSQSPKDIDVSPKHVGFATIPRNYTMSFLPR
In words: Fluorometric HTS enzyme assay, recombinant CYP2A6 (coumarin substrate). The conditions noted are these: ±SEM, 3 replicate assays; 3 μM coumarin. It counts as biochemical. The protocol: (§1) IC50 determinations for human CYPs were similar to HTS methods described by Crespi et al.. Unless otherwise stated, the incubations were carried out in a total volume of 200 μL of 50 mM potassium phosphate buffer (pH 7.4) with 1% acetonitrile. The reaction mixtures contained NADPH-regenerating system in potassium phosphate buffer (pH 7.4) and varying amounts of inhibitor (dissolved in 100% acetonitrile) were preincubated at 37°C for 10 minutes (except CYP2A6 which was in 100 mM Tris buffer pH 7.4). The reactions were initiated by the addition of enzyme/substrate mixture (see Table 1), followed by incubation at 37°C for 30 minutes. The fluorescent signal was measured using a SpectraMax GEMINI XPS (Molecular Devices) with excitation and emission wavelengths listed in Table 1. The data were fit to sigmoidal dose-response curves with nonlinear regression and IC50 values calculated using GraphPad Prism 5.

For a further data set, the target named is T2, CYP3A4 (Homo sapiens, UniProt P08684).
T2 construct: purchased BD Bioscience (Woburn, MA); host or cells: baculovirus-infected insect cells (microsomes, supersomes)
T2 sequence (P08684 whole entry): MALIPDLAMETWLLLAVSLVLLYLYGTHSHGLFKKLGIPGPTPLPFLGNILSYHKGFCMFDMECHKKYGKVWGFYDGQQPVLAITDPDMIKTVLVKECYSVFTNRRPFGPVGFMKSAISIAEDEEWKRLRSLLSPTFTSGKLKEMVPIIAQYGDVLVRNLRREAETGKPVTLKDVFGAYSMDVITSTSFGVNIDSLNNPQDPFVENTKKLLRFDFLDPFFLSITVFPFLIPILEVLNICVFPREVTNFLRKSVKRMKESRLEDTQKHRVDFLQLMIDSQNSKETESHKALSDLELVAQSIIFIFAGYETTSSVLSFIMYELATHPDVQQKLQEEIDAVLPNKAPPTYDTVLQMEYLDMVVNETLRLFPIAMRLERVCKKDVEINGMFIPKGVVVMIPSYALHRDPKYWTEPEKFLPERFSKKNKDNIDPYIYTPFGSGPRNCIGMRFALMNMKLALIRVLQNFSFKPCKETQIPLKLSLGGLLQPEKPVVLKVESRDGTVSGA
In words: Fluorometric HTS enzyme assay, recombinant CYP3A4 (BFC substrate). It counts as biochemical. As to conditions: recombinant CYP3A4, pH 7.4, probe BFC, at 1 mM. As to the method: as §1

The test system of another data set is CYP1B1. Details: method as in PMID 18256205. The conditions noted are these: cited from earlier work.
The target of the next data set is T3, CYP1A1 (Homo sapiens, UniProt P04798).
T3 construct: purchased BD Bioscience (Woburn, MA); host or cells: baculovirus-infected insect cells (microsomes, supersomes)
T3 sequence (P04798 1-512): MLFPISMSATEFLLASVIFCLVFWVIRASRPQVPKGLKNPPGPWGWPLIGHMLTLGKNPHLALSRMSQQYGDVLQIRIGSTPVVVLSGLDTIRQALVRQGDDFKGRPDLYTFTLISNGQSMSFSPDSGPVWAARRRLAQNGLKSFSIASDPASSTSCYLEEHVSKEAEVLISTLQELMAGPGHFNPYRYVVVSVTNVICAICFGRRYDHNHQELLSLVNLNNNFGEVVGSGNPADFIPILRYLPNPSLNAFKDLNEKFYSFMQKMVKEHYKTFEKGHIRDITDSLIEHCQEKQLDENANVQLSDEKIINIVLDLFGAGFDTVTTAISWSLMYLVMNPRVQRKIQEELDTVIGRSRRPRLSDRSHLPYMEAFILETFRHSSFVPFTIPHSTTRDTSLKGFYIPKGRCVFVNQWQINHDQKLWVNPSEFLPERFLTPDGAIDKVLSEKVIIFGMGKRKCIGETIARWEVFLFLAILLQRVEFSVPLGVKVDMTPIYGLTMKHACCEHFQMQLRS
The data set can be described thus: Fluorometric HTS enzyme assay, recombinant CYP1A1 (CEC substrate). As to conditions: ±SEM, 3 replicate assays; 5 μM CEC. It counts as biochemical. The protocol:
as §1

Like-named read-outs stand apart in the source and are kept apart here.

As to `CC(=O)N1CCN(c2ccc(OCC3COC(Cn4ccnc4)(c4ccc(Cl)cc4Cl)O3)cc2)CC1` (stereo not shown) [ketoconazole], the “effect of pretreatment on liver pharmacokinetics of [11C]-vorozole binding” value in data set [1] (pretreatment with ketoconazole) is “altered”.
For the molecule `N#Cc1ccc(C(c2ccc(C#N)cc2)n2cncn2)cc1` [Letrozole], in data set [1] (baboon and human liver, pretreatment with letrozole), the “effect of pretreatment on [11C]-vorozole binding in the liver” value was “does not block”. The IC50 (commonly the point on the concentration scale where inhibition reaches its midpoint) was 106 ± 34 µM on CYP2A6; at least 100 µM in the data set on CYP1B1 (2-hydroxy estradiol formation, read-out: IC50 on CYP1B1, estradiol 2-hydroxylation); at least 100 µM in the data set with CYP1B1 (4-hydroxy estradiol formation, read-out: IC50 on CYP1B1, estradiol 4-hydroxylation); 69.8 ± 5.3 µM at CYP1A1. For the same molecule, the inhibition (as a rule, the share of the control response that was lost under treatment) at 30 min, 1 mM at CYP3A4 is below 10%.

These data come from publication PMC4655258 (Enzyme Research, 2015).
